Test results: the NIST ThermoML archive (doi:10.1021/acs.jced.6b00031)
Numbers after ± are expanded uncertainties.

Test: wn = mass fraction of the nth substance listed
Settings: 101.3 kPa, Liquid, Vibrating tube method

SMILES | mass density (283.15 K, w1 = 0.0695) [kg/m3] | mass density (303.15 K, w1 = 0.1382) [kg/m3] | mass density (313.15 K, w1 = 0.1853) [kg/m3] | mass density (283.15 K, w1 = 0.0569) [kg/m3] | mass density (303.15 K, w1 = 0.1084) [kg/m3] | mass density (313.15 K, w1 = 0.1419) [kg/m3]
O=C(O)CCCCC(=O)O [1,6-hexanedioic acid] + CCO | 837.4 ± 0.5 | 852.3 ± 0.5 | 870.4 ± 0.5 |  |  | 
O=C(O)CCC(=O)O [butanedioic acid] + CCO |  |  |  | 836.8 ± 0.5 | 843.8 ± 0.5 | 868.6 ± 0.5
